From patent US20260226071A1, “2, 4-DIANILINOPYRIMIDINE-BASED AURORA-A KINASE SELECTIVE DEGRADATION INDUCING COMPOUNDS” (UPPTHERA, INC., priority 2023, published 2026)

Target: T1, Aurora kinase A (AURKA) (Homo sapiens, UniProt O14965)
T1 construct: endogenous in cells; host or cells: HeLa LgBit (AURKA-HiBit KI), CRISPR/Cas9 knock-in at the endogenous AURKA locus
T1 sequence (O14965 1-403): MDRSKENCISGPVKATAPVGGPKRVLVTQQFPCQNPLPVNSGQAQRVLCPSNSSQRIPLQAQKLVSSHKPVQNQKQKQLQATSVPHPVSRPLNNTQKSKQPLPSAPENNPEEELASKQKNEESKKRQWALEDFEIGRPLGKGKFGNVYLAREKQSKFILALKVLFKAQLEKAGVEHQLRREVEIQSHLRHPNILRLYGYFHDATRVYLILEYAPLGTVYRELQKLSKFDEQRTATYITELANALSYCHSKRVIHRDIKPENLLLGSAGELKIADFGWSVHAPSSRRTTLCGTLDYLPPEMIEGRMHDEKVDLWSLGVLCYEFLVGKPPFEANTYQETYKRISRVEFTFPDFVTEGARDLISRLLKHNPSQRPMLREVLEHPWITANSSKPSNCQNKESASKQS
Experiment: Luciferase assay for AURKA in HeLa LgBit (AURKA-HiBit KI) cell line
Type: cell-based
Conditions: HeLa LgBit (AURKA-HiBit KI) cells, measured after 12 hours
Source text: HeLa cell lines that stably express LgBit were constructed via LgBit vector transfection. Then, donor DNA and guide RNA for insertion of HiBit amino acid sequence at C-terminus of inherent Aurora kinase A (AURKA) genes were designed and constructed. Thereafter, they were transfected into the cell lines with CRISPR/Cas9 expression vector system. HiBit gene knock-in single cells were selected, passaged and used for the experiments.
For cell culture, DMEM (Gibco, Cat. No. 11995-065; Lot. No. 2562497), FBS (Gibco, Cat. No. 16000-044; Lot. No. 2511328P), Penicillin/Streptomycin (PS) (Gibco, Cat. No. 15140-122; Lot. No. 2585636), 90 mm^2 cell culture dish (SPL, Cat. No. 20100), 96-well white plate, PBS pH 7.4 (Gibco, […]), TrypLE™ Express (Gibco, Cat. No. 12605-010; Lot. No. 2522525), counting chamber (hematocytometer) (Hirschmann, Cat. No. 8100204; Lot. No. 8021087) and 0.4% Trypan Blue solution (DYNEBIO, Cat. No. CBT3710; Lot. No. 20231017) were used. Cells were cultured in DMEM supplemented with 10% FBS and 1% PS and incubated in CO2 incubator (Thermo, Cat. No. 4111) at 37° C., 5% CO2 condition.
HeLa LgBit (AURKA-HiBit KI) cell lines were cultured in 90 mm^2 cell culture dish, and 3×10^4 cells in […] of total medium volume were seeded and incubated for 18 hours in CO2 incubator. Then, Eudurazine (Promega, Cat. No. N247B; Lot. No. 495218) was added to each well to make up 1% of the total volume, followed by further incubation for 2 hours in CO2 incubator.
The present compounds were fully dissolved in DMSO (Sigma-Aldrich Cat. No. D2438, Lot. No. RNBL7287) and 10 nM or 100 nM of total concentration were used in the experiment. After adding the compounds in each well of 96-well white plate, the plate was placed in the plate reader (BMG Labtech, CLARIOstar Plus) for real-time analysis. The wavelength for analysis was set to […], and the luminescence value was measured after 12 hours. The luminescence value was analyzed through an Excel program.

SMILES | luminescence value (Level) (10 nM compound) | luminescence value (Level) (100 nM compound)
O=C1CCC(NC(=O)c2ccc(N3CCC(CN4CCN(C(=O)Cc5ccc(Nc6ncc(F)c(Nc7ccc(C(=O)Nc8ccccc8Cl)cc7)n6)cc5)CC4)CC3)cc2)C(=O)N1 (stereo not shown) [Compound 46, N-(2-chlorophenyl)-4-((2-((4-(2-(4-((1-(4-((2,6-dioxopiperidin-3-yl)carbamoyl)phenyl)piperidin-4-yl)methyl)piperazin-1-yl)-2-oxoethyl)phenyl)amino)-5-fluoropyrimidin-4-yl)amino)benzamide] | C (C is 0.5 to 0.7) | B (B is 0.2 to 0.4)
O=C1CCC(Nc2ccc(N3CC4CN(CC5CN(C(=O)c6ccc(Nc7ncc(F)c(Nc8ccc(C(=O)Nc9ccccc9Cl)cc8)n7)cc6)C5)CC4C3)cc2)C(=O)N1 (stereo not shown) [Compound 34, N-(2-chlorophenyl)-4-((2-((4-(3-((5-(4-((2,6-dioxopiperidin-3-yl)amino)phenyl)hexahydropyrrolo[3,4-c]pyrrol-2(1H)-yl)methyl)azetidine-1-carbonyl)phenyl)amino)-5-fluoropyrimidin-4-yl)amino)benzamide] | B (B is 0.3 to 0.5) | A (A is <0.2)
O=C1CCC(Nc2ccc(N3CC4CC(C3)N(C3CCN(C(=O)c5ccc(Nc6ncc(F)c(Nc7ccc(C(=O)Nc8ccccc8Cl)cc7)n6)cc5)CC3)C4)cc2)C(=O)N1 (stereo not shown) [Compound 28, N-(2-chlorophenyl)-4-((2-((4-(4-(3-(4-((2,6-dioxopiperidin-3-yl)amino)phenyl)-3,6-diazabicyclo[3.2.1]octan-6-yl)piperidine-1-carbonyl)phenyl)amino)-5-fluoropyrimidin-4-yl)amino)benzamide] | C (C is 0.5 to 0.7) | B (B is 0.2 to 0.4)
O=C1CCC(c2ccc(N3CCN(CCN4CC[C@H](NC(=O)c5ccc(Nc6ncc(F)c(Nc7ccc(C(=O)Nc8ccccc8Cl)cc7)n6)cc5)C4)CC3)cc2)C(=O)N1 (stereo partly drawn) [Compound 68, N-(2-chlorophenyl)-4-((2-((4-(((3S)-1-(2-(4-(4-(2,6-dioxopiperidin-3-yl)phenyl)piperazin-1-yl)ethyl)pyrrolidin-3-yl)carbamoyl)phenyl)amino)-5-fluoropyrimidin-4-yl)amino)benzamide] | B (B is 0.3 to 0.5) | A (A is <0.2)
Cn1nc(C2CCC(=O)NC2=O)c2cc(F)c(N3CCN(CCC4CCN(NC(=O)c5ccc(Nc6ncc(F)c(Nc7ccc(C(=O)Nc8ccccc8Cl)cc7)n6)cc5)CC4)CC3)cc21 (stereo not shown) [Compound 107, N-(2-chlorophenyl)-4-((2-((4-((4-(2-(4-(3-(2,6-dioxopiperidin-3-yl)-5-fluoro-1-methyl-1H-indazol-6-yl)piperazin-1-yl)ethyl)piperidin-1-yl)carbamoyl)phenyl)amino)-5-fluoropyrimidin-4-yl)amino)benzamide] | A (A is <0.3) | A (A is <0.2)
O=C1CCC(c2ccc(C#CC3CCN(C4CCN(C(=O)Cc5ccc(Nc6ncc(F)c(Nc7ccc(C(=O)Nc8ccccc8Cl)cc7)n6)cc5)CC4)CC3)cc2)C(=O)N1 (stereo not shown) [Compound 15, N-(2-chlorophenyl)-4-((2-((4-(2-(4-((4-(2,6-dioxopiperidin-3-yl)phenyl)ethynyl)-[1,4′-bipiperidin]-1′-yl)-2-oxoethyl)phenyl)amino)-5-fluoropyrimidin-4-yl)amino)benzamide] | D (D is 0.7 to 0.8) | B (B is 0.2 to 0.4)
O=C1CCC(c2ccc(N3CCN(CCC4CCN(NC(=O)c5ccc(Nc6ncc(F)c(Nc7ccc(C(=O)Nc8ccccc8Cl)cc7)n6)cc5F)CC4)CC3)cc2)C(=O)N1 (stereo not shown) [Compound 105, 4-[[4-[4-[(2-chlorophenyl)carbamoyl]anilino]-5-fluoro-pyrimidin-2-yl]amino]-N-[4-[2-[4-[4-(2,6-dioxo-3-piperidyl)phenyl]piperazin-1-yl]ethyl]-1-piperidyl]-2-fluoro-benzamide] | B (B is 0.3 to 0.5) | A (A is <0.2)

Now from value to molecule:

luminescence value (Level) (10 nM compound) | luminescence value (Level) (100 nM compound) | SMILES
D (D is 0.7 to 0.8) | C (C is 0.4 to 0.6) | O=C1CCC(c2ccc(C#CC3CCN(C4CCN(C(=O)c5ccc(Nc6ncc(F)c(Nc7ccc(C(=O)Nc8ccccc8Cl)cc7)n6)cc5)CC4)CC3)cn2)C(=O)N1 (stereo not shown) [Compound 20, N-(2-chlorophenyl)-4-((2-((4-(4-((6-(2,6-dioxopiperidin-3-yl)pyridin-3-yl)ethynyl)-[1,4′-bipiperidine]-1′-carbonyl)phenyl)amino)-5-fluoropyrimidin-4-yl)amino)benzamide]
C (C is 0.5 to 0.7) | A (A is <0.2) | O=C1CCC(c2ccc(N3CCN(CCC4CCN(NC(=O)c5ccc(Nc6ncc(F)c(Nc7cc(C8CC8)[nH]n7)n6)cc5)CC4)CC3)cc2)C(=O)N1 (stereo not shown) [Compound 61, 4-((4-((5-cyclopropyl-1H-pyrazol-3-yl)amino)-5-fluoropyrimidin-2-yl)amino)-N-(4-(2-(4-(4-(2,6-dioxopiperidin-3-yl)phenyl)piperazin-1-yl)ethyl)piperidin-1-yl)benzamide]
C (C is 0.5 to 0.7) | B (B is 0.2 to 0.4) | COc1cc(C(=O)NN2CCC(CCN3CCN(c4ccc(C5CCC(=O)NC5=O)cc4)CC3)CC2)ccc1Nc1ncc(F)c(Nc2ccc(C(=O)Nc3ccccc3Cl)cc2)n1 (stereo not shown) [Compound 84, 4-((4-((4-((2-chlorophenyl)carbamoyl)phenyl)amino)-5-fluoropyrimidin-2-yl)amino)-N-(4-(2-(4-(4-(2,6-dioxopiperidin-3-yl)phenyl)piperazin-1-yl)ethyl)piperidin-1-yl)-3-methoxybenzamide]
C (C is 0.5 to 0.7) | B (B is 0.2 to 0.4) | O=C1CCC(c2cccc(N3CCC(CN4CCN(C(=O)Cc5ccc(Nc6ncc(F)c(Nc7ccc(C(=O)Nc8ccccc8Cl)cc7)n6)cc5)CC4)CC3)c2)C(=O)N1 (stereo not shown) [Compound 2, N-(2-chlorophenyl)-4-((2-((4-(2-(4-((1-(3-(2,6-dioxopiperidin-3-yl)phenyl)piperidin-4-yl)methyl)piperazin-1-yl)-2-oxoethyl)phenyl)amino)-5-fluoropyrimidin-4-yl)amino)benzamide]
